Source: US6693108B2, “Inhibitors of c-JUN N terminal kinases (JNK) and other protein kinases” (Vertex Pharmaceuticals Incorporated, priority 1999, dated 2004)

target: T1, activated JNK3 (Homo sapiens, UniProt P53779); experiment: JNK3 inhibition, spectrophotometric coupled-enzyme assay; format: biochemical; parameters: Activity in the JNK3 Inhibition Assay (Ki rating): scale not given here; conditions: activated JNK3 10 nM, 10 μM ATP, 30° C.; Ki from competitive inhibition model
T1 construct: One such construct encodes amino acid residues Ser40-Glu402 of JNK3α1 and is preceded by Met and Gly residues; Met-Gly (initiation Met plus Gly added to create the NcoI site) (N); made in house; host or cells: E. coli BL21 (DE3)
Excerpt: A BLAST search of the EST database using the published JNK3α1 cDNA as a query identified an EST clone (#632588) that contained the entire coding sequence for human JNK3α1. Polymerase chain reactions (PCR) using pfu polymerase (Strategene) were used to introduce restriction sites into the cDNA for cloning into the pET-15B expression vector at the NcoI and BamHI sites. The protein was expressed in E. coli. […] This truncation corresponds to Ser 2 of JNK1 and JNK2 proteins, and is preceded by a methionine (initiation) and a glycine residue. The glycine residue was added in order to introduce an NcoI site for cloning into the expression vector. In addition, systematic C-terminal truncations were performed by PCR to identify a construct that give rise to diffraction-quality crystals.
5 mg of JNK3 was diluted to 0.5 mg/ml in 50 mM HEPES buffer, pH 7.5, containing 100 mM NaCl, 5 mM DTT, 20 mM MgCl2 and 1 mM ATP. GST-MKK7(DD) was added at a molar ratio of 1:2.5 GST-MKK7:JNK3. After incubation for 30 minutes at 25° C., the reaction mixture was concentrated 5-fold by ultrafiltration in a Centriprep-30 (Amicon, Beverly, Mass.), diluted to 10 ml and an additional 1 mM ATP added. This procedure was repeated three times to remove ADP and replenish ATP. The final addition of ATP was 5 mM and the mixture incubated overnight at 4° C.
The activated JNK3/GST-MKK7(DD) reaction mixture was exchanged into 50 mM HEPES buffer, pH 7.5, containing 5 mM DTT and 5% glycerol (w/v) by dialysis or ultrafiltration. The reaction mixture was adjusted to 1.1 M potassium phosphate, pH 7.5, and purified by hydrophobic interaction chromatography (at 25° C.) using a Rainin Hydropore column. […] Activated JNK3 (i.e. doubly phosphorylated JNK3) was stored at −70° C. at 0.25-1 mg/ml.
Compounds were assayed for the inhibition of JNK3 by a spectrophotometric coupled-enzyme assay. In this assay, a fixed concentration of activated JNK3 (10 nM) was incubated with various concentrations of a potential inhibitor dissolved in DMSO for 10 minutes at 30° C. in a buffer containing 0.1 M HEPES buffer, pH 7.5, containing 10 mM MgCl2, 2.5 mM phosphoenolpyruvate, 200 μM NADH, 150 μg/mL pyruvate kinase, 50 μg/mL lactate dehydrogenase, and 200 μM EGF receptor peptide. […] The reaction was initiated by the addition of 10 μM ATP and the assay plate is inserted into the spectrophotometer's assay plate compartment that was maintained at 30° C. The decrease of absorbance at 340 nm was monitored as a function of time. The rate data as a function of inhibitor concentration was fitted to competitive inhibition kinetic model to determine the Ki.

T1 sequence (P53779 40-402): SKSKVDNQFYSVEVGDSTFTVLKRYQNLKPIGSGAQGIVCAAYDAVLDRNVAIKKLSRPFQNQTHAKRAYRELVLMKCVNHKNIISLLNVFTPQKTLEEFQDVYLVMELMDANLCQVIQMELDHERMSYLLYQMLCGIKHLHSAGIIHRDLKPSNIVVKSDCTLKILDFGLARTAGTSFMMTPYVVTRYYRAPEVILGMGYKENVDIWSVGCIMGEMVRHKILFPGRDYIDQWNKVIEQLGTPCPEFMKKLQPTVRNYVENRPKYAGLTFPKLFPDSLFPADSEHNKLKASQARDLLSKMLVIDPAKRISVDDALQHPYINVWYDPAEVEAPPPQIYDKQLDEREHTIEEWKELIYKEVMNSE

Activity in the JNK3 Inhibition Assay (Ki rating) | Structure (SMILES)
A/B | COc1ccc(Nc2nccc(-c3c(-c4ccccc4)noc3C)n2)cc1C [IIA-72]
B/C | COc1cccc(-c2noc(C)c2-c2ccnc(Nc3ccccc3)n2)c1OC [IIA-12]
A/B | Cc1onc(-c2ccccc2)c1-c1ccnc(Nc2cccc(F)c2C)n1 [IIA-70]

same assay, conditions: read-out: Activity in the JNK3 Inhibition Assay (Ki rating)

Structure (SMILES) | Ki
COc1cc(OC)cc(C(=O)Nc2nccc(-c3c(-c4cccc(OCc5ccccc5)c4)noc3C)n2)c1 [IIIA-33] | 100 to 1000 nM
Cc1onc(-c2ccccc2)c1-c1ccnc(NC(=O)c2cccs2)n1 [IIIA-15] | < 100 nM
COC(=O)c1ccc(Nc2cc(-c3c(-c4ccccc4)noc3C)ccn2)cc1 [IIA-64] | < 100 nM
Cc1onc(-c2ccccc2)c1-c1ccnc(NC(=O)c2ccccc2)n1 [IIIA-1] | 100 to 1000 nM
Cc1onc(-c2ccccc2)c1-c1ccnc(Nc2cccc(C#N)c2)n1 [IIA-7] | < 100 nM
CSc1ccc(Nc2nccc(-c3c(-c4c(F)cccc4F)noc3C)n2)cc1 [IIA-97] | < 100 nM
Cc1onc(-c2ccccc2F)c1-c1ccnc(NC(=O)c2ccc3ccccc3c2)n1 [IIIA-63] | 100 to 1000 nM
Cc1onc(-c2ccccc2F)c1-c1ccnc(Nc2ccccc2)n1 [IIA-55] | < 100 nM
COc1cc(C(=O)Nc2nccc(-c3c(-c4cccc(F)c4)noc3C)n2)cc(OC)c1OC [IIIA-52] | 100 to 1000 nM
COc1cc(OC)cc(C(=O)Nc2nccc(-c3c(-c4cccc([N+](=O)[O-])c4)noc3C)n2)c1 [IIIA-37] | > 1000 nM
COc1cccc(OC)c1C(=O)Nc1nccc(-c2c(-c3ccccc3)noc2C)n1 [IIIA-10] | > 1000 nM
COc1cc(C(=O)Nc2nccc(-c3c(-c4ccccc4C(F)(F)F)noc3C)n2)cc(OC)c1OC [IIIA-22] | > 1000 nM
Cc1onc(-c2ccccc2)c1-c1ccnc(Nc2ccccc2)c1 [IIA-52, [4-(5-Methyl-3-phenyl-isoxazol-4-yl)-pyridin-2-yl]phenyl-amine] | < 100 nM
Cc1onc(-c2cccc(OCc3ccccc3)c2)c1-c1ccnc(Nc2ccc(C#N)c(F)c2)n1 [IIA-117] | 100 to 1000 nM
Cc1onc(-c2ccccc2)c1-c1ccnc(Nc2ccc(F)cc2)n1 [IIA-42] | < 100 nM
COc1cc(C(=O)Nc2nccc(-c3c(-c4ccccc4F)noc3C)n2)cc(OC)c1OC [IIIA-62] | 100 to 1000 nM
OCc1onc(-c2ccc(F)cc2)c1-c1ccnc(NCCc2ccccn2)n1 [XIA-46] | < 100 nM
COc1cc(C(=O)Nc2nccc(-c3c(-c4cccc(OCc5ccccc5)c4)noc3C)n2)cc(OC)c1OC [IIIA-30] | 100 to 1000 nM
Cc1onc(-c2ccccc2)c1-c1ccnc(Nc2cccc(CO)c2)c1 [IIA-134] | < 100 nM

Structure (SMILES) | Ki
COc1cc(OC)cc(C(=O)Nc2nccc(-c3c(-c4ccccc4)noc3C)n2)c1 [IIIA-42] | 100 to 1000 nM
Cc1onc(-c2cccc(C#N)c2)c1-c1ccnc(Nc2ccccc2)n1 [IIA-127] | 100 to 1000 nM
Cc1onc(-c2ccc(Cl)c(Cl)c2)c1-c1ccnc(Nc2ccccc2)n1 [IIA-15] | 100 to 1000 nM
Cc1ccccc1C(=O)Nc1nccc(-c2c(-c3ccccc3)noc2C)n1 [IIIA-5] | > 1000 nM
CCOC(=O)c1ccc(Nc2nccc(-c3c(-c4cccc([N+](=O)[O-])c4)noc3C)n2)cc1 [IIA-128] | 100 to 1000 nM
Cc1onc(-c2cccc(F)c2)c1-c1ccnc(NC(=O)c2cccc(C#N)c2)n1 [IIIA-51] | 100 to 1000 nM
Cc1noc(C)c1-c1ccnc(Nc2ccccc2)n1 [IIA-86] | > 1000 nM
Cc1onc(-c2c(F)cccc2F)c1-c1ccnc(Nc2cccc(F)c2)n1 [IIA-94] | < 100 nM
Cc1onc(-c2cccc(C(F)(F)F)c2)c1-c1ccnc(Nc2ccccc2)n1 [IIA-82] | 100 to 1000 nM
Cc1onc(-c2ccccc2)c1-c1ccnc(NC(=O)c2ccccc2F)n1 [IIIA-3] | 100 to 1000 nM
Cc1onc(-c2ccccc2F)c1-c1ccnc(NC(=O)c2cccc(C#N)c2)n1 [IIIA-61] | 100 to 1000 nM
Cc1onc(-c2cccc(F)c2)c1-c1ccnc(Nc2ccccc2)n1 [IIA-66] | < 100 nM
Cc1onc(-c2ccccc2F)c1-c1ccnc(NC(=O)c2ccc(F)cc2)n1 [IIIA-59] | 100 to 1000 nM
Cc1onc(-c2ccccc2)c1-c1ccnc(Nc2ccc3c(c2)CCC3=O)n1 [IIAA-11] | < 100 nM
COc1ccc(C(=O)Nc2nccc(-c3c(-c4ccccc4)noc3C)n2)cc1OC [IIIA-8] | 100 to 1000 nM
COc1ccc(C(=O)Nc2nccc(-c3c(-c4ccccc4C(F)(F)F)noc3C)n2)cc1 [IIIA-24] | > 1000 nM
CC(=O)Nc1nccc(-c2c(-c3ccc(F)cc3)noc2C)n1 [XA-2] | > 1000 nM
CCCC(=O)Nc1nccc(-c2c(-c3ccccc3)noc2C)n1 [XA-5] | 100 to 1000 nM
COc1cc(C(=O)Nc2nccc(-c3c(-c4c(F)cccc4F)noc3C)n2)cc(OC)c1OC [IIIA-72] | 100 to 1000 nM

Results, then the compound that gave them:

Ki | Structure (SMILES)
< 100 nM | Cc1ccccc1-c1noc(C)c1-c1ccnc(Nc2ccccc2)n1 [IIA-104]
< 100 nM | Cc1onc(-c2c(F)cccc2F)c1-c1ccnc(Nc2ccc(C#N)cc2)n1 [IIA-93]
< 100 nM | Cc1cccc(Nc2nccc(-c3c(-c4ccccc4C)noc3C)n2)c1 [IIA-108]
100 to 1000 nM | Cc1ccc2cc(Nc3nccc(-c4c(-c5ccccc5C)noc4C)n3)ccc2n1 [IIAA-20]
100 to 1000 nM | Cc1onc(-c2cccc([N+](=O)[O-])c2)c1-c1ccnc(Nc2ccccc2)n1 [IIA-123]
< 100 nM | Fc1ccc(-c2noc(COCc3ccccc3)c2-c2ccnc(NC3CCCCC3)n2)cc1 [XIA-52]
> 1000 nM | COc1ccc(-c2noc(C)c2-c2ccnc(Nc3ccccc3)n2)c(OC)c1 [IIA-13]
> 1000 nM | COc1cccc(-c2noc(C)c2-c2ccnc(Nc3ccccc3)n2)c1OC [IIA-85]
< 100 nM | Cc1onc(-c2ccccc2)c1-c1ccnc(NC2CCC(=O)CC2)n1 [IIAA-38]
< 100 nM | Cc1onc(-c2ccccc2)c1-c1ccnc(Nc2ccc(F)cc2F)n1 [IIA-56]
100 to 1000 nM | Cc1onc(-c2cccc(OCc3ccccc3)c2)c1-c1ccnc(Nc2ccccc2)n1 [IIA-119]
> 1000 nM | COc1cc(OC)cc(C(=O)Nc2nccc(-c3c(-c4ccccc4C(F)(F)F)noc3C)n2)c1 [IIIA-25]
100 to 1000 nM | CC(=O)Nc1cccc(C(=O)Nc2nccc(-c3c(-c4ccccc4)noc3C)n2)c1 [IIIA-75]
100 to 1000 nM | Cc1onc(-c2ccccc2)c1-c1ccnc(NC2CCN(Cc3ccccc3)CC2)n1 [IIAA-27]
100 to 1000 nM | Cc1onc(-c2cccc(F)c2)c1-c1ccnc(NC(=O)c2ccc3ccccc3c2)n1 [IIIA-53]
> 1000 nM | COc1cc(OC)cc(C(=O)Nc2nccc(-c3c(-c4cccc(C#N)c4)noc3C)n2)c1 [IIIA-41]
< 100 nM | CSc1cccc(Nc2nccc(-c3c(-c4ccccc4)noc3C)n2)c1 [IIA-37]
> 1000 nM | COc1cccc(C(=O)Nc2nccc(-c3c(-c4cccc(C#N)c4)noc3C)n2)c1 [IIIA-39]
< 100 nM | Cc1onc(-c2ccccc2)c1-c1ccnc(Nc2ccc(S(C)(=O)=O)cc2)n1 [IIA-63]
< 100 nM | Fc1ccc(-c2noc(COCc3ccccc3)c2-c2ccnc(NCCc3ccccn3)n2)cc1 [XIA-53]
< 100 nM | Cc1onc(-c2ccccc2)c1-c1ccnc(NC2CCCCC2)n1 [IIAA-24]
< 100 nM | Fc1ccc(-c2noc(COC3CCOC3)c2-c2ccnc(NC3CCCCC3)n2)cc1 (stereo not shown) [XIA-50]
100 to 1000 nM | Cc1onc(-c2c(F)cccc2F)c1-c1ccnc(NC(=O)c2cccc(Cl)c2)n1 [IIIA-64]
100 to 1000 nM | COC(=O)c1ccc(C(=O)Nc2nccc(-c3c(-c4ccccc4)noc3C)n2)cc1 [IIIA-44]
100 to 1000 nM | COc1ccc(C(=O)Nc2nccc(-c3c(-c4ccccc4C)noc3C)n2)cc1 [IIIA-20]
100 to 1000 nM | Cc1onc(-c2cccc(F)c2)c1-c1ccnc(NC(=O)c2ccc(F)cc2)n1 [IIIA-49]
100 to 1000 nM | Cc1cccc(C(=O)Nc2nccc(-c3c(-c4c(F)cccc4F)noc3C)n2)c1 [IIIA-67]
100 to 1000 nM | Cc1onc(-c2cccc(F)c2)c1-c1ccnc(NC(=O)c2cccc(Cl)c2)n1 [IIIA-45]
< 100 nM | Cc1onc(-c2c(F)cccc2F)c1-c1ccnc(Nc2ccccc2)n1 [IIA-60]
